The results in this text go back to article PMC9495235, “New MraYAA Inhibitors with an Aminoribosyl Uridine Structure and an Oxadiazole” (Antibiotics, 2022).

For data set [1], the target named is T1, MraY transferase purified from Aquifex aeolicus (MraYAA) (Aquifex aeolicus, UniProt O66465).
T1 construct: His; made in house
Put plainly: Inhibition of MraYAA transferase activity. It is filed as biochemical. As to conditions: for IC50: read-out: IC50 against MraYAA. Here is the method:
The inhibitory activity of the synthesized compounds 12a–12j was evaluated on MraY transferase purified from Aquifex aeolicus (MraYAA) prepared as previously described by Chung et al.. Their activity (Table 4) was compared to the inhibitory activity of the N-triazole-containing inhibitor 13 (Figure 3) that we previously synthesized (Table 4). Commercially available tunicamycin from Streptomyces sp. was used as a positive control in the test.
The inhibitory activity of the synthesized compounds 1–5 was determined as described in reference except that compounds were tested at a final concentration of 10% DMSO. The compounds were evaluated on His-tagged MraY transferase purified from Aquifex aeolicus (MraYAA) prepared as previously described by Chung et al.. The assays were performed as previously described by Stachyra et al..

Data set [2] concerns Staphylococcus aureus ATCC 25923. In words: Antibacterial activity (CMI). It is filed as cell-based. The note with it: Gram +. The method, then: (§1) The antibacterial activity of MraY inhibitors 12a–12h was also evaluated against several bacterial strains. Gram-negative (E. coli ATCC 8730, C. freundii ATCC8090 and P. aeruginosa ATCC 27853) and Gram-positive pathogenic bacterial strains (S. aureus ATCC 25923 and E. faecium ATCC 19434), including a methicillin-resistant strain (S. aureus MRSA ATCC 43300), were selected as a representative of pathogen bacterial diversity. Piperacillin and vancomycin were used as positive control in the tests.
(§2) Antibacterial activity was determined as previously described, but molecules were solubilized in 100% DMSO (cell culture grade) at 1 mg/mL concentration and 10-fold diluted in MHB just before utilization. The MHB-diluted solutions were then serially diluted in 5% DMSO-MHB, at final concentrations ranging from […] for compounds and 6.25 to 5% for DMSO.
(§3) Table S1. Antibacterial activity of compounds 12a-12i, and reference compounds.
(§4) final concentration tested

Data set [3] deals with Escherichia coli ATCC 8730. In words: Antibacterial activity (CMI). The class given is cell-based. As to conditions: Gram -. Here is the method:
as §1, §2, §3, §4

Data set [4] relates to Staphylococcus aureus MRSA ATCC 43300. In words: Antibacterial activity (CMI). It is filed as cell-based. As to conditions: Gram +. Here is the method:
as §1, §2, §3, §4

In data set [5] the test system is Pseudomonas aeruginosa ATCC 27853. Put plainly: Antibacterial activity (CMI). The class given is cell-based. As to conditions: Gram -. Here is the method: as §1, §2, §3, §4
Data set [6] has as its system Citrobacter freundii ATCC 8090. Put plainly: Antibacterial activity (CMI). The class given is cell-based. The note with it: Gram -. Here is the method: as §1, §2, §3, §4
Data set [7] relates to Enterococcus faecium ATCC 19434. Put plainly: Antibacterial activity (CMI). As to conditions: Gram +. The class given is cell-based. The method, then: as §1, §2, §3, §4
A short description of data set [8]: Solubility in 5%DMSO-water (culture media). The note with it: at the highest final concentration tested. The class given is physicochemical. Here is the method:
as §2, §3, §4

Where [9] appears, read: final concentration of 10% DMSO, triplicate, repeated at least twice (tunicamycin tested twice).

As usually defined, the IC50 is the concentration at which inhibition is half-maximal.

Entries after “also recorded” stand apart in the source; their conditions may differ.

T1 sequence (O66465 whole entry): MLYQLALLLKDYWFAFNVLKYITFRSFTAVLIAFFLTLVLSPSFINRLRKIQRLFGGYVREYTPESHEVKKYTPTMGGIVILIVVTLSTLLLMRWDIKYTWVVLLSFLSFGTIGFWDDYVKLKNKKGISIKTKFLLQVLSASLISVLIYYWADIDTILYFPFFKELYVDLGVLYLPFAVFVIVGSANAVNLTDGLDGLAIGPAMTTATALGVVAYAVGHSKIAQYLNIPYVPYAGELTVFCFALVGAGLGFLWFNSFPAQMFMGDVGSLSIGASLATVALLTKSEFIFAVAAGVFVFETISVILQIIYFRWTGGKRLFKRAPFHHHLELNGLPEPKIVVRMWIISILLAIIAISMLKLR

In the case of `CCCCCCCCCCc1cn(C[C@H](O[C@@H]2O[C@H](CN)[C@@H](O)[C@H]2O)[C@H]2O[C@@H](n3ccc(=O)[nH]c3=O)[C@H](O)[C@@H]2O)nn1` [Compound 13, reference compound], the IC50 in data set [1] (setting [9]) is 1.1 µM.

In the case of `CCCCCCCCCCCCCCCc1nc(C[C@H](O[C@@H]2O[C@H](CN)[C@@H](O)[C@H]2O)[C@H]2O[C@@H](n3ccc(=O)[nH]c3=O)[C@H](O)[C@@H]2O)no1.O=C(O)C(F)(F)F` [Compound 12b], the CMI in data set [2], in data set [3], in data set [4], in data set [5], in data set [6] and in data set [7] was over 50 µg/mL each time. Also, the IC50 in data set [1] (setting [9]) was 9.3 ± 0.2 µM.

Take `CCCCCCCCCC(C(=O)O)c1nc(C[C@H](O[C@@H]2O[C@H](CN)[C@@H](O)[C@H]2O)[C@H]2O[C@@H](n3ccc(=O)[nH]c3=O)[C@H](O)[C@@H]2O)no1` (some centres unmarked) [Compound 12j]: in data set [1] (setting [9]), the IC50 was determined as 2.9 ± 0.6 µM. In data set [1] (relative to parent ethyl ester (12h), MraYAA), the “activity relative to the parent ester” value was “almost tenfold more active”.

Regarding `NC[C@H]1O[C@@H](O[C@@H](Cc2noc(CCCCCCCCCc3ccccc3)n2)[C@H]2O[C@@H](n3ccc(=O)[nH]c3=O)[C@H](O)[C@@H]2O)[C@H](O)[C@@H]1O.O=C(O)C(F)(F)F` [Compound 12g], the CMI in data set [2], in data set [3], in data set [4], in data set [5], in data set [6] and in data set [7] was over 50 µg/mL each time. In addition, the IC50 in data set [1] (setting [9]) stood at 5.8 ± 0.1 µM.

With `CCCCCCCCCC(C(=O)OCC)c1nc(C[C@H](O[C@@H]2O[C@H](CN)[C@@H](O)[C@H]2O)[C@H]2O[C@@H](n3ccc(=O)[nH]c3=O)[C@H](O)[C@@H]2O)no1` (mixture of isomers) [Compound 12h], the CMI in data set [2], in data set [3], in data set [4], in data set [5], in data set [6] and in data set [7] was over 50 µg/mL in each case. Also, the half-maximal inhibitory concentration (IC50) in data set [1] (setting [9]) is 27.5 ± 0.7 µM.

In the case of `CCN1CCN(C(=O)N[C@@H](C(=O)N[C@@H]2C(=O)N3[C@@H]2SC(C)(C)[C@@H]3C(=O)O)c2ccccc2)C(=O)C1=O` [Piperacillin, reference compound], the CMI in data set [2] is 4 µg/mL; in data set [3], 4 µg/mL; in data set [4], over 128 µg/mL; in data set [5], 8 µg/mL; in data set [6] it was 4 µg/mL; in data set [7], 4 µg/mL.

As to `CCCCCCCCCCCCCCCCCCc1nc(C[C@H](O[C@@H]2O[C@H](CN)[C@@H](O)[C@H]2O)[C@H]2O[C@@H](n3ccc(=O)[nH]c3=O)[C@H](O)[C@@H]2O)no1.O=C(O)C(F)(F)F` [Compound 12c], the “solubility in 5%DMSO-water (culture media)” value (“solubility in 5%DMSO-water” for short) in data set [8] is reported as “insoluble”. Further, the CMI in data set [2] is 50 µg/mL; in data set [3], over 50 µg/mL; in data set [4], 50 µg/mL; in data set [5] it was over 50 µg/mL; in data set [6] it was over 50 µg/mL; in data set [7], 50 µg/mL. The concentration for half-maximal inhibition (IC50) in data set [1] (setting [9]) stood at 15.8 ± 1 µM.

Regarding `CCCCCCCC/C=C\CCCCCCCc1nc(C[C@H](O[C@@H]2O[C@H](CN)[C@@H](O)[C@H]2O)[C@H]2O[C@@H](n3ccc(=O)[nH]c3=O)[C@H](O)[C@@H]2O)no1.O=C(O)C(F)(F)F` [Compound 12d], the “solubility in 5%DMSO-water” value in data set [8] is reported as “insoluble”. Besides, the CMI in data set [2], in data set [3], in data set [4], in data set [5], in data set [6] and in data set [7] was over 50 µg/mL throughout. Also, in data set [1] (setting [9]), the half-maximal inhibitory concentration (IC50) worked out at 18.9 ± 0.9 µM.

For `CCCCCCCCCCC(CCCCCCCCCC)c1nc(C[C@H](O[C@@H]2O[C@H](CN)[C@@H](O)[C@H]2O)[C@H]2O[C@@H](n3ccc(=O)[nH]c3=O)[C@H](O)[C@@H]2O)no1.O=C(O)C(F)(F)F` [Compound 12i], the “solubility in 5%DMSO-water” value in data set [8] is listed as “insoluble”. The CMI in data set [2], in data set [3], in data set [4], in data set [5], in data set [6] and in data set [7] was over 50 µg/mL in each case. Further, the “IC50 against MraYAA” value in data set [1] (setting [9]) is “no activity; also recorded: N.I. ^e”.

Turning to `CCCCCCCC/C=C/CCCCCCCc1nc(C[C@H](O[C@@H]2O[C@H](CN)[C@@H](O)[C@H]2O)[C@H]2O[C@@H](n3ccc(=O)[nH]c3=O)[C@H](O)[C@@H]2O)no1.O=C(O)C(F)(F)F` [Compound 12f], the “solubility in 5%DMSO-water” value in data set [8] is given as “insoluble”. Further, the CMI in data set [2] is 50 µg/mL; in data set [3] it was over 50 µg/mL; in data set [4], 50 µg/mL; in data set [5], over 50 µg/mL; in data set [6], over 50 µg/mL; in data set [7] it was 50 µg/mL. Also, the IC50 in data set [1] (setting [9]) came to 17.3 ± 0.3 µM.

Regarding `CN[C@H](CC(C)C)C(=O)N[C@H]1C(=O)N[C@@H](CC(N)=O)C(=O)N[C@H]2C(=O)N[C@H]3C(=O)N[C@H](C(=O)N[C@H](C(=O)O)c4cc(O)cc(O)c4-c4cc3ccc4O)[C@H](O)c3ccc(c(Cl)c3)Oc3cc2cc(c3O[C@@H]2O[C@H](CO)[C@@H](O)[C@H](O)[C@H]2O[C@H]2C[C@](C)(N)[C@H](O)[C@H](C)O2)Oc2ccc(cc2Cl)[C@H]1O` [Vancomycin, reference compound], the CMI in data set [2] was determined as 1 µg/mL; in data set [4], 1 µg/mL; in data set [7], 0.5 µg/mL.

On to `CCCCCCCCCCc1nc(C[C@H](O[C@@H]2O[C@H](CN)[C@@H](O)[C@H]2O)[C@H]2O[C@@H](n3ccc(=O)[nH]c3=O)[C@H](O)[C@@H]2O)no1.O=C(O)C(F)(F)F` [Compound 12a], for which the CMI in data set [2], in data set [3], in data set [4], in data set [5], in data set [6] and in data set [7] was over 50 µg/mL in each case. Moreover, the IC50 in data set [1] (setting [9]) was determined as 0.8 ± 0.1 µM.

Take `NC[C@H]1O[C@@H](O[C@@H](Cc2noc(-c3ccc(Oc4ccccc4)cc3)n2)[C@H]2O[C@@H](n3ccc(=O)[nH]c3=O)[C@H](O)[C@@H]2O)[C@H](O)[C@@H]1O.O=C(O)C(F)(F)F` [Compound 12e]: the CMI in data set [2], in data set [3], in data set [4], in data set [5], in data set [6] and in data set [7] was over 50 µg/mL in each case. Besides, the IC50 in data set [1] (setting [9]) was determined as 3.2 ± 0.2 µM.

Consider Tunicamycin [reference compound], for which, in data set [1] (setting [9]), the IC50 turned out to be 0.026 µM.
